The values below come from patent publication US20250025484A1, “POLYMERSOME NANOPARTICLES EXHAUSTING INTRACELLUAR AMINO ACID FOR CANCER THERAPY AND METHODS THEREOF” (THE UNIVERSITY OF HONG KONG, priority 2023, published 2025).

Holding throughout (type): cell-based, human
One experiment deals with SQSTM1. The experiment is described as follows: Western blot of SQSTM1. The conditions noted are these: A549 cells, EBSS plus BSA medium, 4 h. As to the method: The cells were plated in 12-well plates at 1×10^5 density and incubated for 24 h. Subsequently, the cells received indicated treatments for 4 h and the cells were washed with 1×PBS three times and harvested with RIPA buffer (supplemented with Halt protease and phosphatase inhibitor cocktail, Thermo Fischer Scientific, USA). Total protein concentration was determined by pierce BCA protein assay kit (Thermo Fischer Scientific, #23225). Equal amounts of proteins were loaded. SDS-PAGE electrophoresis was utilized to separate proteins, which were subsequently transferred to a nitrocellulose membrane through the wet transfer system. The membranes were blocked with 5% BSA in TBST at room temperature for 1 h and incubated with indicated primary antibodies overnight under 4° C. After washed with TBST, the blots were incubated with secondary antibodies for 1 h at room temperature. After washed with TBST three times, the proteins blots were visualized by Clarity Western ECL Substrate (BioRad) and captured by ChemiDoc Imaging System (BioRad). […]

Experiment [1] relates to A549 cells. The experiment is described as follows: mCherry-GFP-LC3 reporter and BSA-AF647 internalization (CLSM). The conditions noted are these: EBSS plus BTZ, 4 h, vs starved cells. As to the method: For in vitro fluorescent imaging detection, the cells were seeded on Nunc glass bottom confocal dishes (Thermo Fischer Scientific, USA) for 24 h. Unless explained, the cells were incubated with FITC-BSA (0.2 mg/mL), BSA-AF647 (0.05 mg/mL), or DQ-BSA (10 μg/mL) for 4 h for protein internalization and extracellular protein degradation analysis, respectively. TMR-Dextran (0.125 mg/mL) was applied for 1 h as a macropinocytosis marker. Subsequently, after washed with PBS three times, the cells were fixed in 3.7% paraformaldehyde solution in PBS for 10 min, followed by washing with PBS three times and staining with DAPI according to the protocol (Thermo Fischer Scientific, D1306). After washing with PBS three times, the cells were mounted with SlowFade Diamond Antifade Mountant (Thermo Fischer Scientific, S36963). The in vivo TUNEL assay was conducted using the one-step TUNEL assay kit (C1088, Beyotime, China). The Zeiss LSM 900 inverted confocal microscope equipped with 10×0.45 NA, 20×0.8 NA and 40×1.4 NA lens was employed to analyze intracellular fluorescent signals. The same exposure settings were used across all conditions in each individual experiment. […]

The test system of experiment [2] is A549 cells. The experiment is described as follows: DQ-BSA internalization and degradation analysis. The procedure:
For in vitro fluorescent imaging detection, the cells were seeded on Nunc glass bottom confocal dishes (Thermo Fischer Scientific, USA) for 24 h. […] TMR-Dextran (0.125 mg/mL) was applied for 1 h as a macropinocytosis marker. Subsequently, after washed with PBS three times, the cells were fixed in 3.7% paraformaldehyde solution in PBS for 10 min, followed by washing with PBS three times and staining with DAPI according to the protocol (Thermo Fischer Scientific, D1306). After washing with PBS three times, the cells were mounted with SlowFade Diamond Antifade Mountant (Thermo Fischer Scientific, S36963). The in vivo TUNEL assay was conducted using the one-step TUNEL assay kit ([…], Beyotime, China). The Zeiss LSM 900 inverted confocal microscope equipped with 10×0.45 NA, 20×0.8 NA and 40×1.4 NA lens was employed to analyze intracellular fluorescent signals. The same exposure settings were used across all conditions in each individual experiment. The cells were seeded in 12-well plates at 1×10^5 density. Unless explained, the cells were incubated with FITC-BSA (0.2 mg/mL), DQ-BSA (10 μg/mL), or Me4BodipyFL-Ahx3Leu3VS (1 μM) for 4 h for protein internalization, extracellular protein degradation, and proteasome activity analysis, respectively. […] After washing with PBS three times, the cells were harvested and analyzed by Agilent NovoCyte Quanteon analyzer.

Experiment [3] has as its system K48-polyubiquitinated proteins in A549 cells. The experiment is described as follows: Western blot of K48-polyubiquitinated proteins. The conditions noted are these: EBSS plus BTZ (10 μM), 2 h or 24 h. As to the method: The cells were plated in 12-well plates at 1×10^5 density and incubated for 24 h. […] Total protein concentration was determined by pierce BCA protein assay kit (Thermo Fischer Scientific, #23225). Equal amounts of proteins were loaded. SDS-PAGE electrophoresis was utilized to separate proteins, which were subsequently transferred to a nitrocellulose membrane through the wet transfer system. The membranes were blocked with 5% BSA in TBST at room temperature for 1 h and incubated with indicated primary antibodies overnight under 4° C. After washed with TBST, the blots were incubated with secondary antibodies for 1 h at room temperature. After washed with TBST three times, the proteins blots were visualized by Clarity Western ECL Substrate (BioRad) and captured by ChemiDoc Imaging System (BioRad). The following antibodies were used: K48-polyubiquitinated proteins (Cell signaling technology, #8081), p-S6K (Cell signaling technology, #9234), S6K (Cell signaling technology, #2708), mTOR (Cell signaling technology, #2983), β-Actin (Cell signaling technology, #4967), SQSTM1 (Abcam, ab91526), HRP-conjugated secondary antibody (Abcam, ab6789), HRP-conjugated secondary antibody (Abcam, ab6721).
Background: Immunoblotting shows a protein as a band on a membrane.

A further experiment relates to proteasome. The experiment is described as follows: Proteasome activity probe (Me4BodipyFL-Ahx3Leu3VS) flow cytometry. Particulars: A549 cells, EBSS plus BTZ (10 μM), 4 h, vs EBSS. As to the method: The cells were seeded in 12-well plates at 1×10^5 density. Unless explained, the cells were incubated with FITC-BSA (0.2 mg/mL), DQ-BSA (10 μg/mL), or Me4BodipyFL-Ahx3Leu3VS (1 μM) for 4 h for protein internalization, extracellular protein degradation, and proteasome activity analysis, respectively. TMR-Dextran (0.125 mg/mL) was applied for 1 h as a macropinocytosis marker. After washing with PBS three times, the cells were harvested and analyzed by Agilent NovoCyte Quanteon analyzer.

The subject of experiment [4] is A549 cells. The experiment is described as follows: Cytotoxicity assay (MTT). The conditions noted are these: BTZ (20 μM), EBSS vs DMEM, 24 h. The procedure:
The cells were seeded in 96-well plates and cultured for 24 h. To investigate the influence of starvation on BTZ treatment, the cells were incubated with BTZ (20 μM) or DMSO, in complete DMEM or EBSS medium for 24 h. To investigate the combination effect of EIPA and BTZ, the cells were treated with a series of concentration of EIPA and BTZ in EBSS (plus 3% BSA) medium for 24 h. 10 μL of MTT (5 mg/mL) were added into each well and incubated for 2-4 h. Then the supernatant was changed with 100 μL DMSO to dissolve the precipitate. Subsequently, the absorbance of the solution at 570 nm and 630 nm was measured by a microplate reader (SpectraMax M4, Molecular Devices LLC, San Jose, CA). The cell viability was calculated by OD570-OD630 and normalized to DMSO control group.

The subject of experiment [5] is A549 cells. The experiment is described as follows: FITC-BSA protein internalization. The procedure:
(§1) For in vitro fluorescent imaging detection, the cells were seeded on Nunc glass bottom confocal dishes (Thermo Fischer Scientific, USA) for 24 h. Unless explained, the cells were incubated with FITC-BSA (0.2 mg/mL), BSA-AF647 (0.05 mg/mL), or DQ-BSA (10 μg/mL) for 4 h for protein internalization and extracellular protein degradation analysis, respectively. TMR-Dextran (0.125 mg/mL) was applied for 1 h as a macropinocytosis marker. Subsequently, after washed with PBS three times, the cells were fixed in 3.7% paraformaldehyde solution in PBS for 10 min, followed by washing with PBS three times and staining with DAPI according to the protocol (Thermo Fischer Scientific, D1306). After washing with PBS three times, the cells were mounted with SlowFade Diamond Antifade Mountant (Thermo Fischer Scientific, S36963). The in vivo TUNEL assay was conducted using the one-step TUNEL assay kit (C1088, Beyotime, China). The Zeiss LSM 900 inverted confocal microscope equipped with 10×0.45 NA, 20×0.8 NA and 40×1.4 NA lens was employed to analyze intracellular fluorescent signals. The same exposure settings were used across all conditions in each individual experiment.
(§2) The cells were seeded in 12-well plates at 1×10^5 density. […] After washing with PBS three times, the cells were harvested and analyzed by Agilent NovoCyte Quanteon analyzer.

The subject of experiment [6] is A549 cells. The experiment is described as follows: TMR-Dextran internalization (macropinocytosis marker). The conditions noted are these: EBSS plus EIPA (50 μM, pretreated 1 h before). As to the method:
as §1, §2

Structures are written as SMILES.

Take `CC(C)C[C@H](NC(=O)[C@H](Cc1ccccc1)NC(=O)c1cnccn1)B(O)O` [BTZ, bortezomib]: in the experiment on SQSTM1, the SQSTM1 expression level entry is reported as “exacerbated starvation-induced SQSTM1 decrease”. Besides, in the experiment on A549 cells [1], the “LC3 puncta (autophagy flux)” value is on record as “further enhanced” and the “percentage of BSA-AF647 colocalized with LC3 puncta” value is on record as “increased the percentage of BSA-AF647 colocalized with LC3 puncta”. In addition, the “fluorescence intensity of DQ-BSA (internalized protein degradation)” value in the experiment with A549 cells [2] (A549 cells, EBSS plus BTZ (10 μM), 4 h, vs EBSS) is on record as “substantially decreased”. Moreover, the “level of K48-polyubiquitinated proteins” value in experiment [3] is reported as “profound accumulation of polyubiquitinated proteins”. Further, the “fluorescence intensity of proteasome probe (proteasome activity)” value in the experiment with proteasome was “remarkably reversed”. For the same compound, the cell viability result in the experiment with A549 cells [4] is reported as “much more significant decrease of cell viability in starved cancer cells”. For the same compound, the FITC-BSA protein internalization result in the experiment on A549 cells [5] (EBSS plus BTZ, 4 h) was “further increased protein internalization”.
As to `CCN(c1nc(N)c(C(=O)N=C(N)N)nc1Cl)C(C)C` [EIPA, 5-(n-ethyl-n-isopropyl)-amiloride], in the experiment on A549 cells [2] (A549 cells pre-incubated with DQ-BSA 1 h, then EBSS with 3% BSA plus EIPA 3 h, vs starvation group), the “fluorescence intensity of DQ-BSA (intracellular protein degradation)” value is “further increased the fluorescence intensity of DQ-BSA”. Also, in the experiment with A549 cells [5] (EBSS plus EIPA (50 μM, pretreated 1 h before), 1 h), the “starvation-amplified FITC-BSA uptake” value is “notably blocked”. In addition, the “TMR-Dextran internalization (macropinocytosis)” value in the experiment on A549 cells [6] was “inhibited”.
